Data reported in patent publication US10350210B2, “EGFR and ALK dual inhibitor” (PRECEDO PHARMACEUTICALS CO., LTD, priority 2015, dated 2019).

Key:
H3255 = assay: Effect on cell cycle (PI staining, flow cytometer), H3255; format: cell-based; settings: H3255 (EGFR L858R), 24 hours
Text: In order to study which growth phase the cell was halted after administration of the drugs, five cell lines including non-small cell lung cancer cell line A549 (expressing wild-type EGFR gene), non-small cell lung cancer cell line H1975 (expressing EGFR L858R/T790M double mutant gene), non-small cell Lung cancer cell line PC-9 (expressing EGFR delE746_A750 mutant gene), non-small cell lung cancer cell line H3255 (expressing EGFR L858R mutant gene) and non-small cell lung cancer cell NCI-H3122 (expressing ALK gene) were tested for effect of Compound 1 on cell cycle distribution. Two cell lines including non-small cell lung cancer cell NCI-H3122 (expressing ALK gene) and non-small cell lung cancer cell H1975 (expressing EGFR L858R/T790M double mutant gene) were tested for effect of Compound 10 on cell cycle distribution. […]

[1] = test system: non-small cell lung cancer cell H1975 subcutaneous tumors; assay: Mouse tumor model of non-small cell lung cancer cell H1975; format: in vivo; settings: for tumor inhibition rate: Bal b/c mice
Experimental: Similarly, 27 Bal b/c female mice, 4-6 weeks old, were purchased from Shanghai SLAC Laboratory Animal Co., Ltd., and maintained in an SPF laboratory. Drinking water and bedding were both sterilized by autoclaving. All operations involving the mice were performed under aseptic conditions. At day 0, 5×10^6 non-small cell lung cancer cells H1975 (purchased from ATCC) were injected subcutaneously into the left flank of all mice. At day 15, all mice were divided into three groups (9 mice per group), and the first group of mice were orally administered with methyl cellulose (HKI) solvent, the second group of mice were orally administered with Compound 1 at a dose of 25 mg/kg mouse weight, and the third group of mice were orally administered with Compound 1 at a dose of 50 mg/kg mouse weight daily. Starting from the administration, the length/width of the subcutaneous tumor was measured daily with a vernier caliper, and the weight of the mice was recorded daily to observe the effect of Compound 1 on the body weight of the mice. The mice were sacrificed at day 36 and the subcutaneous tumors were collected. The tumors were weighed, and then the tumor tissues were used to prepare protein lysates for use. The growth trend of the subcutaneous tumor within 16-36 days was plotted, wherein the tumor volume was calculated as length×width×width/2 mm^3.

HCC827 = assay: Growth of cancer cells (Cell Titer-Glo viability), HCC827; format: cell-based; settings: Homo sapiens; HCC827 (mutant EGFR del19), 72 hrs
How it was run: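 Proliferation assay: IL-3-independent BaF3 lines stably expressing TEL-fused human kinase (retroviral MSCV-Puro), plus EGFR-mutant NSCLC lines (HCC827 del19, NCI-H3255 L858R). Read-out: CellTiter-Glo luminescence of viable cells.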

GI50 (HCC827): 3 nM
Structure (SMILES): C=CC(=O)Nc1cc(Nc2ncc(Cl)c(Nc3ccccc3S(=O)(=O)C(C)C)n2)c(OC)cc1N1CCN(CC)CC1 [Compound 1, N-(5-(5-chloro-4-(2-(isopropylsulfonyl)phenylamino)pyrimidin-2-ylamino)-2-(4-ethylpiperazin-1-yl)-4-methoxyphenyl)acrylamide]
effect on cell cycle distribution (H3255): halt the cells in G0-G1 phase
tumor inhibition rate ([1]; oral daily 25 mg/kg, on the second day of administration): 70%
tumor inhibition rate ([1]; oral daily 50 mg/kg, after 8 days of administration): 81.7%
body weight of the mice ([1]; oral daily 25 mg/kg): did not decrease
body weight of the mice ([1]; oral daily 50 mg/kg): did not decrease
